Drawing on patent US9283222B2 (priority 2006, dated 2016), this text covers Ki for 13 compounds.

This assay deals with Recombinant Human Poly(ADP-Ribose) Polymerase (PARP), PARP-1 (Homo sapiens (Human), UniProt P09874). To be noted: read-out: PARP-1 (Ki); Table 1; text calls the values EC50s.
Chain of Recombinant Human Poly(ADP-Ribose) Polymerase (PARP), PARP-1 (P09874 whole entry): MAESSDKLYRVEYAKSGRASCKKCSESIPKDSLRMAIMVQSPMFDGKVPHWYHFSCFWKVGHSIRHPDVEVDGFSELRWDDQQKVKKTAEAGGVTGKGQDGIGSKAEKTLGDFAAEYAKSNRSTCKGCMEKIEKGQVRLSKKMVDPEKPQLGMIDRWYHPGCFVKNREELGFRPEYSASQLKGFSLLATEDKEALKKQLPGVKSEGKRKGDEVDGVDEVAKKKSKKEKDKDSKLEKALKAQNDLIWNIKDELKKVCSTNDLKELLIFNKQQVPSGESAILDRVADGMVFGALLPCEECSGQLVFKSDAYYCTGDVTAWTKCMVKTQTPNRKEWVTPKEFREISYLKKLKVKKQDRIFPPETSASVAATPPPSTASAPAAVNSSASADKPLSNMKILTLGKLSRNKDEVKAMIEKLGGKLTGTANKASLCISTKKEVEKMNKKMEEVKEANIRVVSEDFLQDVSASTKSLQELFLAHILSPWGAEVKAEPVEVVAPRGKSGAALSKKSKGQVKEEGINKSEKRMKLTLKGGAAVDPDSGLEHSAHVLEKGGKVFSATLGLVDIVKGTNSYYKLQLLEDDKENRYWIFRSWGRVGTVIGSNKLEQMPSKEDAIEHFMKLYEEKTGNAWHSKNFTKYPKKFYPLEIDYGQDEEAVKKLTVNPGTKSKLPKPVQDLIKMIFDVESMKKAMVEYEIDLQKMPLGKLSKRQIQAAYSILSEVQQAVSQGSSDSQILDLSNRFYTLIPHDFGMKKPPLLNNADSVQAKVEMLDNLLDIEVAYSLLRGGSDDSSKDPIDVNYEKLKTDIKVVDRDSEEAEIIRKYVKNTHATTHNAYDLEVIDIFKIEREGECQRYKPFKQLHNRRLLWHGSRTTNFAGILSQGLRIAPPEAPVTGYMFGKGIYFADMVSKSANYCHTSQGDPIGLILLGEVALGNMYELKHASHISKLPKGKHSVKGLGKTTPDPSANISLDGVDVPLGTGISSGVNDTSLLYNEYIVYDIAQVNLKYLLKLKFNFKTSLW

As for `O=C(NC1CCN(C(=O)[C@@H]2CSCN2)CC1)c1cc(Cc2n[nH]c(=O)c3c2NCCC3)ccc1F` [Example 729, 2-fluoro-5-[(5-oxo-1,2,3,4,5,6-hexahydropyrido[2,3-d]pyridazin-8-yl)methyl]-N-{1-[(4R)-1,3-thiazolidin-4-ylcarbonyl]piperidin-4-yl}benzamide], the Ki was determined as 48 nM.
Turning to `CN(C(=O)c1cc(Cc2n[nH]c(=O)c3c2NCCC3)ccc1F)C1CCNCC1` [Example 706, 2-fluoro-N-methyl-5-[(5-oxo-1,2,3,4,5,6-hexahydropyrido[2,3-d]pyridazin-8-yl)methyl]-N-piperidin-4-ylbenzamide], the Ki was found to be 5 nM.
For `O=C(c1ccc2nc[nH]c2c1)N1CCN(C(=O)c2cc(Cc3n[nH]c(=O)c4c3NCCC4)ccc2F)CC1` [Example 655] the value was 0.7 nM; for `CC(Cc1n[nH]c(=O)c2c1CCCC2)c1ccc(F)c(-c2cccc(C(N)=O)c2)c1` (stereo not shown) [Example 295, 2′-fluoro-5′-(1-methyl-2-(4-oxo-3,4,5,6,7,8-hexahydrophthalazin-1-yl)ethyl)-1,1′-biphenyl-3-carboxamide], 912 nM; for `O=C(c1cc(Cc2n[nH]c(=O)c3c2NCCC3)ccc1F)N1CCN(c2cccc(C(F)(F)F)c2)CC1` [Example 602, 8-[4-fluoro-3-({4-[3-(trifluoromethyl)phenyl]piperazin-1-yl}carbonyl)benzyl]-2,3,4,6-tetrahydropyrido[2,3-d]pyridazin-5(1H)-one], 3 nM.
Take `COc1cc(NC(=O)c2cccc(Cc3n[nH]c(=O)c4c3CCCC4)c2)cc(C(F)(F)F)c1` [Example 347, N-(3-methoxy-5-(trifluoromethyl)phenyl)-3-((4-oxo-3,4,5,6,7,8-hexahydrophthalazin-1-yl)methyl)benzamide]: the Ki turned out to be 337 nM.
With `O=c1[nH]nc(Cc2cccc(NS(=O)(=O)c3cccs3)c2)c2c1CCCC2` [Example 120, N-(3-((4-oxo-3,4,5,6,7,8-hexahydrophthalazin-1-yl)methyl)phenyl)thiophene-2-sulfonamide], the Ki worked out at 626 nM.
Consider `O=C(c1cnccn1)N1CCCN(C(=O)c2cc(Cc3n[nH]c(=O)c4c3NCCC4)ccc2F)CC1` [Example 693, 8-(4-fluoro-3-{[4-(pyrazin-2-ylcarbonyl)-1,4-diazepan-1-yl]carbonyl}benzyl)-2,3,4,6-tetrahydropyrido[2,3-d]pyridazin-5(1H)-one], for which the Ki is 2 nM.
`O=C1CC[C@@H](C(=O)Nc2cccc(Cc3n[nH]c(=O)c4c3CCCC4)c2)N1` [Example 139, 5-oxo-N-(3-((4-oxo-3,4,5,6,7,8-hexahydrophthalazin-1-yl)methyl)phenyl)-L-prolinamide]: the Ki amounted to 206 nM.
Turning to `COc1ccc(N2CCN(C(=O)c3cc(Cc4n[nH]c(=O)c5c4CCCC5)ccc3F)CC2)cc1` [Example 623, 4-(4-fluoro-3-{[4-(4-methoxyphenyl)piperazin-1-yl]carbonyl}benzyl)-5,6,7,8-tetrahydrophthalazin-1(2H)-one], the Ki worked out at 3 nM.
Turning to `O=C1CCC(C(=O)N2CCN(C(=O)c3cc(Cc4n[nH]c(=O)c5c4CCCC5)ccc3F)CC2)N1` (stereo not shown) [Example 675, 4-[4-fluoro-3-({4-[(5-oxopyrrolidin-2-yl)carbonyl]piperazin-1-yl}carbonyl)benzyl]-5,6,7,8-tetrahydrophthalazin-1(2H)-one], the Ki worked out at 1.2 nM.
Take `O=C(NCCN1CCCCC1)c1cc(Cc2n[nH]c(=O)c3c2NCCC3)ccc1F` [Example 486, 2-fluoro-5-((5-oxo-1,2,3,4,5,6-hexahydropyrido(2,3-d)pyridazin-8-yl)methyl)-N-(2-piperidin-1-ylethyl)benzamide]: the Ki came out at 15 nM.
Regarding `O=C(c1cnc2ccccc2c1)N1CCN(C(=O)c2cc(Cc3n[nH]c(=O)c4c3NCCC4)ccc2F)CC1` [Example 657, 8-(4-fluoro-3-{[4-(quinolin-3-ylcarbonyl)piperazin-1-yl]carbonyl}benzyl)-2,3,4,6-tetrahydropyrido[2,3-d]pyridazin-5(1H)-one], the inhibition constant Ki was found to be 0.8 nM.
